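Assay format: 96-well plates, 48-hour exposure. GI50: concentration for 50% inhibition of growth. TGI: total growth inhibition.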
Assays:
Assay in all cases: NCI-60 cell line screen, 48 h
HCT-15 colon = system: HCT-15 colon
SK-MEL-2 melanoma = system: SK-MEL-2 melanoma
HCC-2998 colon = system: HCC-2998 colon
CAKI-1 renal = system: CAKI-1 renal
OVCAR-5 ovarian = system: OVCAR-5 ovarian
SNB-19 CNS = system: SNB-19 CNS
ACHN renal = system: ACHN renal
HCT-116 colon = system: HCT-116 colon
MOLT-4 leukemia = system: MOLT-4 leukemia
SNB-75 CNS = system: SNB-75 CNS

| Structure (SMILES) | TGI (HCT-15 colon) [µM] | TGI (SK-MEL-2 melanoma) [µM] | TGI (HCC-2998 colon) [µM] | TGI (CAKI-1 renal) [µM] | TGI (OVCAR-5 ovarian) [µM] | TGI (SNB-19 CNS) [µM] | TGI (ACHN renal) [µM] | TGI (HCT-116 colon) [µM] | TGI (MOLT-4 leukemia) [µM] | TGI (SNB-75 CNS) [µM] | GI50 (HCT-15 colon) [µM] | GI50 (SK-MEL-2 melanoma) [µM] | GI50 (SNB-75 CNS) [µM] | GI50 (HCC-2998 colon) [µM] | GI50 (CAKI-1 renal) [µM] | GI50 (OVCAR-5 ovarian) [µM] | GI50 (ACHN renal) [µM] | GI50 (HCT-116 colon) [µM] | GI50 (MOLT-4 leukemia) [µM] |
| --- | --- | --- | --- | --- | --- | --- | --- | --- | --- | --- | --- | --- | --- | --- | --- | --- | --- | --- | --- |
| COc1ccc(-c2cc3cc(Cl)cc(Cl)c3oc2=O)cc1OC | > 100 | > 100 | > 100 | > 100 | > 100 | > 100 | > 100 | > 100 | > 100 |  |  |  |  |  |  |  |  |  |  |
| C=C(C)[C@H]1CC23C(=O)[C@@](C)(C[C@H]2C1(C)C)C(=O)C(C(=O)C(C)C)=C3O | 33.1 | 33.6 |  | 55.3 | 40.8 | 69.7 | 30.4 |  | 19 |  |  |  |  |  |  |  |  |  |  |
| C=C1[C@@H]2CCC3[C@]4(C)C(CC[C@@]5(C)C(=O)O[C@H](O)[C@@H]45)[C@H](O)[C@]3(C2)[C@H]1OC1OC(CO)C(O)C(O)C1O (stereo partly drawn) | > 50 | > 50 |  |  | > 50 | > 50 | > 50 | > 50 | > 50 | > 50 |  |  |  |  |  |  |  |  |  |
| CCn1ncc2c(=O)n3ncn(-c4ccc(Br)cc4)c3nc21 | > 100 | > 100 | > 100 |  | > 100 | > 100 | > 100 | > 100 | > 100 | > 100 |  |  |  |  |  |  |  |  |  |
| Nc1c(N2CCOCC2)c(=O)nc2[nH]/c(=C\c3ccccc3O)c(=O)n12 | > 100 |  | > 100 | > 100 | > 100 | > 100 | > 100 | > 100 | > 100 | > 100 |  |  |  |  |  |  |  |  |  |
| O=C(c1ccc([N+](=O)[O-])cc1)N1CCCC1 | > 100 |  | > 100 | > 100 | > 100 | > 100 | > 100 | > 100 | > 100 | > 100 |  |  |  |  |  |  |  |  |  |
| CN(C)CCCNC(=O)N/N=C/c1ccccc1 | > 100 | > 100 |  |  |  | > 100 | > 100 | > 100 | > 100 | > 100 |  |  |  |  |  |  |  |  |  |
| O=C1CSC(c2c[nH]c3ccccc23)N1c1ccc(Cl)cc1Cl (stereo not drawn) | > 100 |  | > 100 |  | > 100 | > 100 |  | > 100 | > 100 | > 100 |  |  |  |  |  |  |  |  |  |
| O=C(c1ccco1)N(C(=O)N1CCC(c2ccccc2)CC1)c1ccccc1 | > 100 | > 100 |  | > 100 | > 100 | > 100 | > 100 | > 100 | 54.2 | 46.2 |  |  |  |  |  |  |  |  |  |
| CC(=O)Oc1ccc2c(-c3ccccc3)c(Oc3ccc(Cl)cc3)c(=O)oc2c1 | 10 |  | 19.7 | 32.3 | 32.4 | 30 | 30.5 | 28 | 34.7 | 19.5 |  |  |  |  |  |  |  |  |  |
| COc1ccc([C@]23CCC4(OCC(C)(C)CO4)[C@H]4CON(O[C@H](O[C@@H]5CCCCC5C(C)(C)c5ccccc5)C2)[C@@H]43)cc1OC (stereo partly drawn) | > 100 | > 100 | > 100 | 39 | > 100 | > 100 |  | > 100 | 53.1 | > 100 |  |  |  |  |  |  |  |  |  |
| CC1=C(C(=O)OCCO[N+](=O)[O-])C(c2ccccc2[N+](=O)[O-])C(C(=O)OC(C)C)=C(C)N1 (stereo not drawn) | 30.9 | 30.5 | 29.5 | 59.7 | 30.4 | 39.6 | 87.6 | 29.8 | > 100 |  |  |  |  |  |  |  |  |  |  |
| CN1c2ccccc2C2=C(c3ccccc3)CC[C@@H](C(=O)N3C4CC5CC[C@@]4(CS3(=O)=O)C5(C)C)[C@@H]21 (stereo partly drawn) | > 100 |  |  | > 100 | > 100 | > 100 | > 100 | > 100 | > 100 | > 100 |  |  |  |  |  |  |  |  |  |
| O=C1c2cc3c(cc2-c2c1c1ccc(Cl)cc1c(=O)n2CCCn1ccnc1)OCO3 | > 100 | > 100 | > 100 | > 100 | 49 |  | 1.09 | 11 | 1.17 | 4.14 | 0.0431 | 0.649 | 0.0107 | 0.0737 | < 0.01 | 0.0448 | < 0.01 | < 0.01 | < 0.01 |
| CC1(C)OCC(C2OC(C)(C)OC2[C@H]2O[C@@]3(O)[C@H]4[C@H](C=CC[C@@H]42)[C@@H](OCc2ccccc2)[C@H](OCc2ccccc2)[C@H]3OCc2ccccc2)O1 (stereo partly drawn) | > 100 | 98.5 |  | > 100 | > 100 | > 100 | > 100 | > 100 | 44.3 | > 100 |  |  |  |  |  |  |  |  |  |
| O=C1Nc2cc(F)ccc2C1=O | > 100 | > 100 | > 100 | > 100 | > 100 | > 100 | > 100 |  | > 100 | > 100 |  |  |  |  |  |  |  |  |  |
| Cc1cc(-c2cc(C(C)(C)C)c(O)c(C(C)(C)C)c2)c(C)cc1-c1cc(C(C)(C)C)c(O)c(C(C)(C)C)c1 | > 100 | > 100 |  | > 100 | > 100 | > 100 | > 100 | > 100 | > 100 | > 100 |  |  |  |  |  |  |  |  |  |
| CC(C)(C)c1ccnc(N=C2N=C(Nc3cc(C(C)(C)C)ccn3)c3ccccc32)c1 | > 100 | > 100 |  | 53.1 | > 100 | 44.4 | > 100 | 30.8 | 85.8 | > 100 |  |  |  |  |  |  |  |  |  |
| COc1cc2c(c(OC)c1)[C@H](C)N(Cc1ccccc1)C(C)C2 (stereo partly drawn) | > 100 |  | > 100 | > 100 |  | > 100 | > 100 | > 100 | > 100 | > 100 |  |  |  |  |  |  |  |  |  |
| CCOC(=O)C(NC(=O)c1cccc(Cl)c1)(Nc1cccc(C)c1)C(F)(F)F (stereo not drawn) | 31.2 | 31.8 | 31.4 | 47.5 |  | > 100 | 29.8 | 33.4 | 67.8 | 43.9 |  |  |  |  |  |  |  |  |  |
| N#C/C(C(=O)NCc1ccccc1)=C(/N)N1CCCC1 | > 100 | > 100 | > 100 | > 100 | > 100 | > 100 | > 100 | > 100 | > 100 |  |  |  |  |  |  |  |  |  |  |
| CCC1(CC)C(=O)N(C(=O)c2cc(OC)c(OC)c(OC)c2)N(C(=O)c2cc(OC)c(OC)c(OC)c2)C1=O | > 50 | > 50 | > 50 | > 50 | > 50 | > 50 | > 50 | > 50 |  | > 50 |  |  |  |  |  |  |  |  |  |
